According to patent US12171876B2, “Cationic lipid compound, composition containing same and use thereof” (HANGZHOU TIANLONG PHARMACEUTICAL CO., LTD., priority 2022, dated 2024):
Several values for one entry are separate records, joined by “and”; a condition that tells them apart may be missing. Identical values can stand only once. Entries after “also recorded” stand apart in the source; their conditions may differ.

How the values were obtained:
[1] = Particle size and polydispersity index (PDI) of lipid nanoparticles by dynamic light scattering; type: physicochemical; settings: LNP formulation of Example 4, cationic lipid/DSPC/cholesterol/DMG-PEG2000 50:10:38.5:1.5; 25° C., 90° scattering angle
Procedure: The particle size and polydispersity index (PDI) were determined by dynamic light scattering using Malvern laser particle size analyzer.
10 μL of the liposome solution was weighed, diluted to 1 mL with RNase-free deionized water, and added to the sample pool. Each sample was measured in triplicate. The measurement conditions were: 90° scattering angle, and 25° C.

[2] = system: 293T cells; assay: Fluorescent detection of Fluc-mRNA (transfection efficiency of LNP formulations in cells); type: cell-based
Procedure: (§1) Cell recovery and passage: 293T cells were recovered, cultured in a culture dish, and passaged to the required number of cells.
(§2) Seeding plate: The cells in the culture dish were digested and counted. Cells were spread in a 96-well plate at 10,000 cells per well and in a 12-well plate at 150,000 cells per well. Cells were cultured overnight until the cells adhered to the wall.
A LNP formulation containing 0.3 μg of Fluc-mRNA (the carrier components of the LNP formulation were cationic lipid, neutral lipid, structured lipid and polymer-conjugated lipid with a molar ratio of 50:10:38.5:1.5, wherein the cationic lipid was listed in Table 1) was added to the cell culture medium of a 96-well plate, and further incubated for 24 hours. The corresponding reagent was added according to the instructions of the […] Luciferase Assay Kit, and the fluorescence expression intensity of each well was detected by an IVIS fluorescence detection system. This test verified the transfection efficiency of LNP formulations in cells.
In order to further compare the intracellular transfection efficiency of LNP formulations prepared from cationic lipid YK-009 and compound 25, we prepared LNP formulations with Fluc-mRNA contents of 0.3 μg, 0.225 μg, 0.15 μg and 0.075 μg, respectively (the carrier components of the LNP formulation were cationic lipid, neutral lipid, structured lipid and polymer-conjugated lipid with a molar ratio of 50:10:38.5:1.5, wherein the cationic lipid was YK-009 or compound 25). The intracellular transfection activity of the prepared LNP formulations was detected, and the detection method was the same as above.

[3] = system: 293T cells; assay: Cell survival rate assay (CCK-8); type: cell-based; settings: for Cell survival rate (%): 24 hours
Procedure: as §1, §2
A LNP formulation containing 1.5 μg of Fluc-mRNA (the carrier component of the LNP formulation was cationic lipid, neutral lipid, structured lipid and polymer-conjugated lipid with a molar ratio of 50:10:38.5:1.5, wherein the cationic lipid was listed in Table 1) was added to the cell culture medium of a 96-well plate, and further cultivated for 24 hours. 10 μL of CCK-8 solution was then added to each well, and the culture plate was incubated in an incubator for 1 hour. The absorbance at 450 nm was measured by a microplate reader.
To compare the cytotoxicity of LNP formulations prepared from cationic lipid YK-009 and compound 25, we prepared LNP formulations with Fluc-mRNA contents of 1.5 μg, 1.125 μg, 0.75 μg and 0.375 μg (the carrier components of LNP formulations were cationic lipid, neutral lipid, structured lipid and polymer-conjugated lipid with a molar ratio of 50:10:38.5:1.5, wherein the cationic lipid was YK-009 or compound 25). The assay method of cell survival rate was the same as above.

[4] = system: female BALB/C mice; assay: Mouse live imaging test of LNP formulations of Fluc-mRNA; type: in vivo
Procedure: A LNP formulation containing 10 μg of Fluc-mRNA was intramuscularly injected into female BALB/C mice aged 4-6 weeks and weighing 17-19 g, and at specific time points (3 h, 6 h, 24 h, 48 h and 72 h) after administration, mice were injected intraperitoneally with a fluorescent imaging substrate. The mice moved freely for 5 minutes, and then the average radiation intensity (corresponding to fluorescence expression intensity) of the protein expressed by the mRNA carried by LNP in mice was detected using the IVIS Spectrum small animal live imager.
To compare the protein expression and duration in mice of LNP formulations prepared from cationic lipid YK-009 and compound 25, we prepared LNP formulations with Fluc-mRNA contents of 10 μg, 7.5 μg, 5 μg and 2.5 μg (the carrier components of LNP formulations were cationic lipid, neutral lipid, structured lipid and polymer-conjugated lipid with a molar ratio of 50:10:38.5:1.5, wherein the cationic lipid was YK-009 or compound 25). The mouse live imaging test method was the same as above.

[5] = mRNA transfection, time not stated

Compound: CCCCCCCCCCOC(=O)CCCN(CCO)CCCCCC(=O)OCC(CCCCCCCC)CCCCCCCC [YK-009, 2-octyldecyl 6-((4-(decyloxy)-4-oxobutyl)(2-hydroxyethyl)amino)hexanoate]
- PDI (%) [1]: 18.2%
- Particle size (nm) [1]: 136.44 nm
- RLU value / cell transfection efficiency, times that of MC3 ([2]; Fluc-mRNA LNP formulation): 42 times and 40 times
- RLU value / cell transfection efficiency, times that of YK-004 ([2]; Fluc-mRNA LNP formulation): 39 times
- RLU value / cell transfection efficiency, times that of YK-010 ([2]; Fluc-mRNA LNP formulation): 58 times and ~60 times
- RLU value / cell transfection efficiency, times that of compound 27 ([2]; Fluc-mRNA LNP formulation): 13 times
- fluorescence absorption, times that of the compound 25 formulation ([2]; LNP formulation containing 0.075 μg of Fluc-mRNA): 3.7 times
- fluorescence absorption, times that of the compound 25 formulation ([2]; LNP formulation containing 0.15 μg of Fluc-mRNA): 4.0 times
- fluorescence absorption, times that of the compound 25 formulation ([2]; LNP formulation containing 0.225 μg of Fluc-mRNA): 7.0 times
- fluorescence absorption, times that of the compound 25 formulation ([2]; LNP formulation containing 0.3 μg of Fluc-mRNA): 4.4 times
- cell transfection efficiency, fold compared with compound 25 ([2]; mRNA transfection, content not stated): 7 times
- difference in toxicity to transfected cells between YK-009 and YK-010 [3]: ≥ 25%
- Cell survival rate (%) ([3]; Fluc-mRNA content 0.375 μg): 100%
- Cell survival rate (%) ([3]; Fluc-mRNA content 0.75 μg): 100%
- Cell survival rate (%) ([3]; Fluc-mRNA content 1.125 μg): 100%
- Cell survival rate (%) ([3]; Fluc-mRNA content 1.5 μg): 100%
- Cell survival rate (%) ([3]; LNP formulation containing 1.5 μg of Fluc-mRNA): 100%
- reduction in toxicity to transfected cells compared with compound 25 ([3]; mRNA transfection): 9%
- toxicity to transfected cells, lower than that of MC3 ([3]; mRNA transfection): 12%
- toxicity to transfected cells, lower than that of compound 23 ([3]; mRNA transfection): 13%
- toxicity to transfected cells, lower than that of compound 27 ([3]; mRNA transfection): 16%
- expression intensity of Fluc-mRNA in mice over time (in words) ([4]; 3 h to 72 h after intramuscular injection): highest expression intensity; also recorded: maintain high expression in vivo for a long time
- expression in mice, times higher than that for MC3 [4, 5]: more than 25 times
- expression in mice, times higher than that for compound 27 [4, 5]: > 6 times
- increase in expression in mice compared with compound 25 [4, 5]: 7 fold
